These compounds were tested on NMNAT2 (assay: NMNAT2-Hibit nano-luciferase activity in transfected U87MG cells, 5 μM, 48 hours). Settings: NMNAT2-Hibit luciferase plasmid, 48 hours (Table D).
Assay type: cell-based
Procedure: Selected compounds were tested in vitro. Briefly, U87MG cells were transfected with NMNAT2-Hibit luciferase plasmid. Cells were treated with test compound at 5 μM for 48 hours. Cells were then collected and assayed for nano-luciferase activity.

SMILES | D: compound efficacy for NMNAT2 activation; increase in NMNAT2 luciferase activity
CC1CCCC(C)N1C(=O)Cn1cc(C(=O)c2ccccc2)c2ccccc21 (centres unmarked) [BC181219] | ++ (“++” >20% and <100% increase in NMNAT2 luciferase activity.)
O=C(Cn1cc(C(=O)C2CCCCC2)c2ccccc21)NCc1ccco1 [BC181220] | +++ (“+++” >100% increase in NMNAT2 luciferase activity.)
O=C(Cn1cc(C(=O)C2CCCCC2)c2ccccc21)NCc1ccccc1 [BC181221] | + (“+” <20% increase in NMNAT2 luciferase activity.)
O=C(Cn1cc(C(=O)C2CCCCC2)c2ccccc21)NCCc1ccccc1 [BC181222] | ++ (“++” >20% and <100% increase in NMNAT2 luciferase activity.)
O=C(Cn1cc(C(=O)c2ccco2)c2ccccc21)NCc1ccccc1 [BC181223] | + (“+” <20% increase in NMNAT2 luciferase activity.)
CC(NC(=O)Cn1cc(C(=O)c2ccccc2)c2ccccc21)c1ccccc1 (centres unmarked) [BC181224] | + (“+” <20% increase in NMNAT2 luciferase activity.)
CC(NC(=O)Cn1cc(C(=O)C2CCCCC2)c2ccccc21)c1ccccc1 (centres unmarked) [BC181225] | + (“+” <20% increase in NMNAT2 luciferase activity.)
CCC(=O)c1cn(CC(=O)NCc2cccnc2)c2ccccc12 [BC181226] | + (“+” <20% increase in NMNAT2 luciferase activity.)
CCN(CC)C(=O)C(=O)c1cn(CC(=O)NCCc2ccccc2)c2ccccc12 [BC181227] | + (“+” <20% increase in NMNAT2 luciferase activity.)
CCc1cccc2c(C(=O)C(=O)NCCc3ccccc3)cn(Cc3ccccc3)c12 [BC181228] | + (“+” <20% increase in NMNAT2 luciferase activity.)
CCn1cc(CCCC(=O)NCc2ccc(F)cc2)c2ccccc21 [BC181229] | ++ (“++” >20% and <100% increase in NMNAT2 luciferase activity.)
Cc1ccc(Cn2cc(CCCC(=O)NCc3ccco3)c3ccccc32)cc1 [BC181230] | +++ (“+++” >100% increase in NMNAT2 luciferase activity.)
Cc1ccc(Cn2cc(CCCC(=O)NCc3ccco3)c3ccccc32)cc1 [BC181231] | ++ (“++” >20% and <100% increase in NMNAT2 luciferase activity.)
Cc1ccc(Cn2cc(CCCC(=O)NC(C)C)c3ccccc32)cc1 [BC181232] | + (“+” <20% increase in NMNAT2 luciferase activity.)
CCCNC(=O)CCCc1cn(Cc2ccc(C)cc2)c2ccccc12 [BC181233] | + (“+” <20% increase in NMNAT2 luciferase activity.)
COCCNC(=O)CCCc1cn(Cc2ccc(C)cc2)c2ccccc12 [BC181234] | ++ (“++” >20% and <100% increase in NMNAT2 luciferase activity.)
Cc1ccccc1Cn1cc(CCCC(=O)NCc2ccco2)c2ccccc21 [BC181235] | ++ (“++” >20% and <100% increase in NMNAT2 luciferase activity.)
Cc1ccccc1Cn1cc(CCC(=O)NCc2ccco2)c2ccccc21 [BC181237] | ++ (“++” >20% and <100% increase in NMNAT2 luciferase activity.)
Cc1ccccc1Cn1cc(CCC(=O)NCC2=CC=CC2)c2ccccc21 [BC181238] | ++ (“++” >20% and <100% increase in NMNAT2 luciferase activity.)
Cc1ccc(Cn2cc(CCC(=O)NCC3=CC=CC3)c3ccccc32)cc1 [BC181239] | + (“+” <20% increase in NMNAT2 luciferase activity.)
Cc1ccc(Cn2cc(CCC(=O)NCc3ccco3)c3ccccc32)cc1 [BC181240] | + (“+” <20% increase in NMNAT2 luciferase activity.)
Cc1ccccc1Cn1cc(CCC(=O)NCc2ccco2)c2ccccc21 [BC181241] | + (“+” <20% increase in NMNAT2 luciferase activity.)
Cc1ccccc1Cn1cc(CCC(=O)NCC2=CC=CC2)c2ccccc21 [BC181242] | + (“+” <20% increase in NMNAT2 luciferase activity.)
Cc1ccccc1Cn1cc(CCC(=O)NCc2ccco2)c2ccccc21 [BC181243] | ++ (“++” >20% and <100% increase in NMNAT2 luciferase activity.)
Cc1ccccc1Cn1cc(CCC(=O)NCC2=CC=CC2)c2ccccc21 [BC181244] | ++ (“++” >20% and <100% increase in NMNAT2 luciferase activity.)

SMILES | D: compound efficacy for NMNAT2 activation; increase in NMNAT2 luciferase activity
Cc1ccc(C)c(Cn2cc(CCC(=O)NCc3ccco3)c3ccccc32)c1 [BC181245] | ++ (“++” >20% and <100% increase in NMNAT2 luciferase activity.)
Cc1ccc(C)c(Cn2cc(CCC(=O)NCC3=CC=CC3)c3ccccc32)c1 [BC181246] | ++ (“++” >20% and <100% increase in NMNAT2 luciferase activity.)
Cc1c(C)n(Cc2ccccc2)c2ccc(C(=O)NCc3ccco3)cc12 [BC181247] | +++ (“+++” >100% increase in NMNAT2 luciferase activity.)
Cc1ccc(CNC(=O)c2ccc3c(c2)c(C)c(C)n3Cc2ccccc2)o1 [BC181248] | ++ (“++” >20% and <100% increase in NMNAT2 luciferase activity.)
Cc1ccc2c(c1)c(=O)c(C(=O)c1ccncc1)cn2CC(=O)NCc1ccccc1 [BC181249] | + (“+” <20% increase in NMNAT2 luciferase activity.)
Cc1ccc(CNC(=O)Cn2cc(C(=O)c3ccncc3)c(=O)c3cc(C)ccc32)cc1 [BC181250] | + (“+” <20% increase in NMNAT2 luciferase activity.)
Cc1ccc2c(c1)c(=O)c(C(=O)c1ccncc1)cn2CC(=O)NCc1ccc(Cl)cc1 [BC181251] | ++ (“++” >20% and <100% increase in NMNAT2 luciferase activity.)
Cc1ccc2c(c1)c(=O)c(C(=O)c1ccncc1)cn2CC(=O)NCc1ccc(F)cc1 [BC181252] | ++ (“++” >20% and <100% increase in NMNAT2 luciferase activity.)
O=C(Cn1cc(C(=O)c2ccncc2)c(=O)c2cc(F)ccc21)NCc1ccccc1 [BC181253] | ++ (“++” >20% and <100% increase in NMNAT2 luciferase activity.)
Cc1cc2c(=O)c(C(=O)c3ccncc3)cn(CC(=O)NCc3ccccc3)c2cc1C [BC181254] | ++ (“++” >20% and <100% increase in NMNAT2 luciferase activity.)
Cc1ccc(CNC(=O)Cn2cc(C(=O)c3ccncc3)c(=O)c3cc(C)c(C)cc32)cc1 [BC181255] | + (“+” <20% increase in NMNAT2 luciferase activity.)
O=C(Cn1cc(C(=O)c2ccncc2)c(=O)c2cc(Br)ccc21)NCc1ccccc1 [BC181256] | + (“+” <20% increase in NMNAT2 luciferase activity.)
O=C(Cn1cc(C(=O)c2ccccc2)c2ccccc21)NCc1ccc2c(c1)OCCCO2 [BC181257] | + (“+” <20% increase in NMNAT2 luciferase activity.)
Cc1ccc(Cn2cc(C(CC(=O)NCc3ccco3)c3ccc(C)cc3)c3ccccc32)cc1 (centres unmarked) [BC181258] | ++ (“++” >20% and <100% increase in NMNAT2 luciferase activity.)
Cc1ccc(Cn2cc(C(CC(=O)NCc3ccco3)c3cccc(C)c3)c3ccccc32)cc1 (centres unmarked) [BC181259] | ++ (“++” >20% and <100% increase in NMNAT2 luciferase activity.)
Cc1ccc(Cn2cc(C(CC(=O)NCc3ccco3)c3ccccc3C)c3ccccc32)cc1 (centres unmarked) [BC181260] | ++ (“++” >20% and <100% increase in NMNAT2 luciferase activity.)
COc1ccc(C(CC(=O)NCc2ccco2)c2cn(Cc3ccc(C)cc3)c3ccccc23)cc1 (centres unmarked) [BC181261] | ++ (“++” >20% and <100% increase in NMNAT2 luciferase activity.)
Cc1ccc(Cn2cc(C(CC(=O)NCc3ccco3)c3ccc(C)cc3)c3ccccc32)cc1 (centres unmarked) [BC181262] | ++ (“++” >20% and <100% increase in NMNAT2 luciferase activity.)
COc1ccc(Cn2cc(C(CC(=O)NCc3ccco3)C(C)(C)C)c3ccccc32)cc1 (centres unmarked) [BC181263] | ++ (“++” >20% and <100% increase in NMNAT2 luciferase activity.)
O=C(CC(CCc1ccccc1)c1cn(Cc2ccccc2)c2ccccc12)NCc1ccco1 (centres unmarked) [BC181264] | + (“+” <20% increase in NMNAT2 luciferase activity.)
Cc1ccc(Cn2cc(C(CC(=O)NCc3ccco3)C(C)C)c3ccccc32)cc1 (centres unmarked) [BC181265] | + (“+” <20% increase in NMNAT2 luciferase activity.)
CC(=O)c1cn(CC(=O)NCc2ccncc2)c2ccccc12 [BC181266] | + (“+” <20% increase in NMNAT2 luciferase activity.)
CC(=O)c1cn(CC(=O)NCc2ccc(C)cc2)c2ccccc12 [BC181267] | + (“+” <20% increase in NMNAT2 luciferase activity.)
CC(=O)c1cn(CC(=O)NCCn2ccc3ccc(C)cc32)c2ccccc12 [BC181268] | ++ (“++” >20% and <100% increase in NMNAT2 luciferase activity.)

These compounds were tested on NMNAT2-V5 polypeptide (assay: NMNAT2-V5 polypeptide expression in transfected Beas2B cells (Western blot), dose dependent, 24 h). Settings: Beas2B cells transfected with NMNAT2-V5 plasmid, compound for 24 hours, read-out: A: compound efficacy (IC50) for NMNAT2 activation.
Assay type: cell-based
Procedure: FIG. 1. Beas2B cells were transfected with NMNAT2-V5 plasmid. 24 hours later, cells were treated with compounds in a dose dependent manner (0, 1, 5, and 25 μM) for additional 24 hours. Cells were then collected and assayed for NMNAT2-V5 protein expression.
Selected compounds were tested in vitro. Briefly, Beas2B cells were transfected with NMNAT2-V5 plasmid. 24 hours later, cells were treated with a test compound in a dose dependent manner for additional 24 hours. Cells were then collected and assayed for NMNAT2-V5 polypeptide expression. Results of the assay are shown in Table A. Western blots showing levels of NMNAT2-V5 polypeptide for selected compounds are shown in FIG. 1.

SMILES | IC50
O=C(COCc1cc(-c2cccs2)sn1)NCCN1CCC(Cc2ccccc2)CC1 [BC18115] | 5 to 25 µM
